Assay results taken from patent US20220041606A1, “POSITIVE ALLOSTERIC MODULATORS OF THE MUSCARINIC ACETYLCHOLINE RECEPTOR M1” (Vanderbilt University, priority 2020, published 2022).

Key:
human mAChR M1 [1] = target: T1, human mAChR M1 (Homo sapiens, UniProt P11229); assay: mAChR M1 cell-based functional assay (calcium mobilization), agonist activity upon compound addition; settings: CHO-K1 cells expressing hM1; for EC50: compound alone, before acetylcholine addition; for Emax: relative to the maximum for acetylcholine
T1 construct: host or cells: CHO-K1 cells (ATCC), stably transfected using Lipofectamine2000
T1 sequence (P11229 1-460): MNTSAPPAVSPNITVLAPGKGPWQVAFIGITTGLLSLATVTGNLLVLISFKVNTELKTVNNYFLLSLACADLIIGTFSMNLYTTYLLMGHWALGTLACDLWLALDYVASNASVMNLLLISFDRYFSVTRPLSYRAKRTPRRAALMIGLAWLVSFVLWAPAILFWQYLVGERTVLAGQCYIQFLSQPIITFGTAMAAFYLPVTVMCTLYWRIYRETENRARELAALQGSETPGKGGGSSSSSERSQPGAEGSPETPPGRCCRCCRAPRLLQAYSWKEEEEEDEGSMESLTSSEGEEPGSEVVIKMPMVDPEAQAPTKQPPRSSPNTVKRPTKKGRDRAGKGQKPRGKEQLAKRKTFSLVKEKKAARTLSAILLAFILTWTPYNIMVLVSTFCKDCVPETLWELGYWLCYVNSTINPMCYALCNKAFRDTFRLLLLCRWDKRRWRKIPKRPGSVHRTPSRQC
From the text: (§1) Chinese hamster ovary (CHO-K1) cells stably expressing rat (r)M1 were purchased from the American Type Culture Collection and cultured according to their indicated protocol. CHO cells stably expressing human (h)M2, hM3, and hM5 were described previously (Levey, et al., 1991); hM1 and hM4 cDNAs were purchased from Missouri S&T cDNA Resource; rM4 cDNA was provided by T. L. Bonner (National Institutes of Health, Bethesda, MID). rM2 and rM3 were cloned from a rat brain cDNA library and sequence verified. hM1, rM2, rM3, hM4, and rM4 cDNAs were used to stably transfect CHO-K1 cells purchased from the American Type Culture Collection using Lipofectamine2000. To make stable rM2, hM2, rM3, hM4, and rM4 cell lines for use in calcium mobilization assays, these cells also were stably transfected with a chimeric G-protein (Gqi5) (provided by B. R. Conklin, University of California, San Francisco) using Lipofectamine 2000. rM1, hM1, rM3, hM3, rM5, and hM5 cells were grown in Ham's F-12 medium containing 10% heat-inactivated fetal bovine serum (FBS), 20 mM HEPES, and 50 μg/mL G418 sulfate. rM2-Gq15, hM2-Gqi5, and hM4-Gqi5 cells were grown in the same medium also containing 500 μg/mL Hygromycin B. Stable rM4-Gqi5 cells were grown in DMEM containing 10% heat-inactivated FBS, 20 mM HEPES, 400 μg/mL G418 sulfate, and 500 μg/mL Hygromycin B.
(§2) For high throughput measurement of agonist-evoked increases in intracellular calcium, CHO-K1 cells stably expressing muscarinic receptors were plated in growth medium lacking G418 and hygromycin at 15,000 cells/20 μL/well in Greiner 384-well black-walled, tissue culture (TC)-treated, clear-bottom plates (VWR). Cells were incubated overnight at 37° C. and 5% CO2. The next day, cells were washed using an ELX 405 (BioTek) with four washes (80 μL) of assay buffer then aspirated to 20 μL. Next, 20 μL of 16 μM Fluo-4/acetoxymethyl ester (Invitrogen, Carlsbad, Calif.) prepared as a 2.3 mM stock in DMSO and mixed in a 1:1 ratio with 10% (w/v) Pluronic F-127 and diluted in assay buffer was added to the wells and the cell plates were incubated for 50 min at 37° C. and 5% CO2. Dye was removed by washing with the ELX 405 (four 80 μL washes of assay buffer) then aspirated to 20 μL. Compound master plates were formatted in an 11 point CRC format (1:3 dilutions) in 100% DMSO with a starting concentration of 10 mM using the BRAVO liquid handler (Agilent). Test compound CRCs were then transferred to daughter plates (240 nL) using the Echo acoustic plate reformatter (Labcyte, Sunnyvale, Calif.) and then diluted into assay buffer (40 μL) to a 2× stock using a Thermo Fisher Combi (Thermo Fisher Scientific, Waltham, Mass.).
(§3) Calcium flux was measured using the Functional Drug Screening System (FDSS) 6000 (Hamamatsu Corporation, Tokyo, Japan) as an increase in the fluorescent static ratio. Compounds were applied to cells (20 μL, 2×) using the automated system of the FDSS 6000 at 4 s into the 300 s protocol and the data were collected at 1 Hz. At 144 s into the 300s protocol, 10 μL of an EC20 concentration of the muscarinic receptor agonist acetylcholine was added (5×), followed by the addition of 12 μL an EC80 concentration of acetylcholine at the 230 s time point (5×). Agonist activity was analyzed as a concentration-dependent increase in calcium mobilization upon compound addition. Emax values for agonist activity are expressed relative to the maximum for acetylcholine. Positive allosteric modulator activity was analyzed as a concentration-dependent increase in the EC20 acetylcholine response. Antagonist activity was analyzed as a concentration-dependent decrease in the EC80 acetylcholine response. Concentration-response curves were generated using a four-parameter logistical equation in XLfit curve fitting software (IDBS, Bridgewater, N.J.) for Excel (Microsoft, Redmond, Wash.) or Prism (GraphPad Software, Inc., San Diego, Calif.). […]

human mAChR M1 [2] = target: T1, human mAChR M1; assay: mAChR M1 cell-based functional assay (calcium mobilization), PAM activity: increase in the EC20 acetylcholine response; settings: CHO-K1 cells expressing hM1; potentiation of EC20 acetylcholine response
From the text: as §1, §2, §3

SMILES	EC50 (human mAChR M1 [1]) [µM]	Emax (human mAChR M1 [1]) [%]	EC50 (human mAChR M1 [2]) [µM]	Emax (human mAChR M1 [2]) [%]
Cn1cc2c(-c3cc(F)c(Cn4cc(C(=O)NCC(O)C(F)(F)F)c5nccnc5c4=O)c(F)c3)cccc2n1 (centres unmarked) [Compound A74, 6-(2,6-difluoro-4-(2-methyl-2H-indazol-4-yl)benzyl)-5-oxo-N-(3,3,3-trifluoro-2-hydroxypropyl)-5,6-dihydropyrido[3,4-b]pyrazine-8-carboxamide]	> 10	< 5	3.81	53
Cn1cc(-c2ccc(Cn3cc(C(=O)NC4CC5(COC5)C4)c4nccn4c3=O)c(F)c2)cn1 [Compound B9, 6-(2-fluoro-4-(1-methyl-1H-pyrazol-4-yl)benzyl)-5-oxo-N-(2-oxaspiro[3.3]heptan-6-yl)-5,6-dihydroimidazo[1,2-c]pyrimidine-8-carboxamide]	–	17	2.06	61
Cn1ccc(-c2ccc(Cn3cc(C(=O)N[C@H]4CCOC[C@@H]4O)c4nccnc4c3=O)c(F)c2)n1 [Compound A63, 6-(2-fluoro-4-(1-methyl-1H-pyrazol-3-yl)benzyl)-N-((3R,4S)-3-hydroxytetrahydro-2H-pyran-4-yl)-5-oxo-5,6-dihydropyrido[3,4-b]pyrazine-8-carboxamide]	> 10	7	≥ 10	55
Cc1nc(-c2ccc(Cn3cc(C(=O)N[C@H]4CCCC[C@@H]4O)c4ncccc4c3=O)cc2)co1 [Compound A20, N-((1S,2S)-2-hydroxycyclohexyl)-6-(4-(2-methyloxazol-4-yl)benzyl)-5-oxo-5,6-dihydro-1,6-naphthyridine-8-carboxamide]	> 10	< 5	0.78	63
Cn1ccc(-c2ccc(Cn3cc(C(=O)N[C@H]4CCCCC[C@@H]4O)c4ncn(C)c4c3=O)c(F)c2)n1 [Compound C3, 5-(2-fluoro-4-(1-methyl-1H-pyrazol-3-yl)benzyl)-N-((1S,2S)-2-hydroxycycloheptyl)-3-methyl-4-oxo-4,5-dihydro-3H-imidazo[4,5-c]pyridine-7-carboxamide]	> 10	< 5	0.31	60
Cc1ccc(-c2cc(F)c(Cn3cc(C(=O)N[C@H]4CCCC[C@@H]4O)c4ncccc4c3=O)c(F)c2)cn1 [Compound A35, 6-(2,6-difluoro-4-(6-methylpyridin-3-yl)benzyl)-N-((1S,2S)-2-hydroxycyclohexyl)-5-oxo-5,6-dihydro-1,6-naphthyridine-8-carboxamide]	> 10	< 5	0.55	48
Cn1ccc(-c2ccc(Cn3cc(C(=O)N[C@H]4CCCCC[C@@H]4O)c4sccc4c3=O)c(F)c2)n1 [Compound D28, 5-(2-fluoro-4-(1-methyl-1H-pyrazol-3-yl)benzyl)-N-((1S,2S)-2-hydroxycycloheptyl)-4-oxo-4,5-dihydrothieno[3,2-c]pyridine-7-carboxamide]	> 10	< 5	> 10	40
Cc1cn2c(=O)n(Cc3ccc(-c4cnn(C)c4)cc3F)cc(C(=O)N[C@H]3CCOC[C@@H]3O)c2n1 [Compound B23, 6-(2-Fluoro-4-(1-methyl-1H-pyrazol-4-yl)benzyl)-N-((3R,4S)-3-hydroxytetrahydro-2H-pyran-4-yl)-2-methyl-5-oxo-5,6-dihydroimidazo[1,2-c]pyrimidine-8-carboxamide]	> 10	< 5	7.85	39
Cn1cc2c(-c3cc(F)c(Cn4cc(C(=O)N[C@H]5CCCCC[C@@H]5O)c5ncccc5c4=O)c(F)c3)cccc2n1 [Compound A23, 6-(2,6-difluoro-4-(2-methyl-2H-indazol-4-yl)benzyl)-N-((1S,2S)-2-hydroxycycloheptyl)-5-oxo-5,6-dihydro-1,6-naphthyridine-8-carboxamide]	> 10	< 5	0.21	67
Cn1cc2c(-c3cc(F)c(Cn4cc(C(=O)N[C@H]5CCCC[C@@H]5O)c5nccn5c4=O)c(F)c3)cccc2n1 [Compound B20, 6-(2,6-difluoro-4-(2-methyl-2H-indazol-4-yl)benzyl)-N-((1S,2S)-2-hydroxycyclohexyl)-5-oxo-5,6-dihydroimidazo[1,2-c]pyrimidine-8-carboxamide]	2.79	63	0.24	51
Cn1ccc(-c2ccc(Cn3cc(C(=O)N[C@H]4CCCC[C@@H]4O)c4ncccc4c3=O)c(F)c2)n1 [Compound A2, 6-(2-fluoro-4-(1-methyl-1H-pyrazol-3-yl)benzyl)-N-((1S,2S)-2-hydroxycyclohexyl)-5-oxo-5,6-dihydro-1,6-naphthyridine-8-carboxamide]	> 10	< 5	0.73	91
Cc1cn2c(=O)n(Cc3ccc(-n4cccn4)cc3)cc(C(=O)N[C@H]3CCOC[C@@H]3O)c2n1 [Compound B27, 6-(4-(1H-pyrazol-1-yl)benzyl)-N-((3R,4S)-3-hydroxytetrahydro-2H-pyran-4-yl)-2-methyl-5-oxo-5,6-dihydroimidazo[1,2-c]pyrimidine-8-carboxamide]	> 10	< 5	≥ 10	30
O=C(N[C@H]1CCOC[C@@H]1O)c1cn(Cc2c(F)cc(-c3ccns3)cc2F)c(=O)c2cccnc12 [Compound A50, 6-(2,6-difluoro-4-(isothiazol-5-yl)benzyl)-N-((3R,4S)-3-hydroxytetrahydro-2H-pyran-4-yl)-5-oxo-5,6-dihydro-1,6-naphthyridine-8-carboxamide]	> 10	< 5	1.79	69
Cn1cc2c(-c3cc(F)c(Cn4cc(C(=O)N[C@H]5CCCC[C@@H]5O)c5occc5c4=O)c(F)c3)cccc2n1 [Compound D19, 5-(2,6-difluoro-4-(2-methyl-2H-indazol-4-yl)benzyl)-N-((1S,2S)-2-hydroxycyclohexyl)-4-oxo-4,5-dihydrofuro[3,2-c]pyridine-7-carboxamide]	> 10	9	0.43	82
Cn1cc(-c2ccc(Cn3cc(C(=O)NC4CCOCC4)c4ncccc4c3=O)c(F)c2)cn1 [Compound A10, 6-(2-fluoro-4-(1-methyl-1H-pyrazol-4-yl)benzyl)-5-oxo-N-(tetrahydro-2H-pyran-4-yl)-5,6-dihydro-1,6-naphthyridine-8-carboxamide]	> 10	< 5	≥ 10	59
